Data taken from US20080044484A1, “Use of polymeric nanoparticles for vaccine delivery” (THE REGENTS OF THE UNIVERSITY OF CALIFORNIA, priority 2004, published 2008).

Tested on: peptide-loaded MDA-MB-231 cells
Assay: Mechanisms of peptide loading: acid stripping, pronase, Brefeldin A, 51Cr-release
Assay type: cell-based, human
Source text: To distinguish between loading of the peptides into the cytosol and simple binding of these peptides to the surface MHC molecules several approaches were used. First, β2-microglobulin was removed from the surface of peptide-loaded tumor cells by acid stripping. […] Second, pronase was used for complete enzymatic digestion of HLA molecules on the cell surface after loading in order to be able to detect the appearance of new internally formed HLA-peptide complexes on the cell surface, but not pulsing of the cells. Third, Brefeldin A (BFA), a metabolite of the fungus Eupenicillium brefeldianum, was used which specifically blocks protein transport from the ER to Golgi apparatus.
These experiments confirmed that the antigenic peptides were introduced into the cytosol of the cells, resulting in a prolonged and more efficient antigen presentation.

In the case of `C[C@H]1CCC/C=C/[C@@H]2C[C@H](O)C[C@H]2[C@H](O)/C=C/C(=O)O1` [Brefeldin A], the “Blocking of recognition of peptide-loaded tumor cells by HER2/neu-specific CTL” value was “specifically blocks the recognition”.
